Test results as given in ChEMBL document CHEMBL5532638, “Current development of 1,2,3-triazole derived potential antimalarial scaffolds: Structure- activity relationship (SAR) and bioactive compounds” (Eur J Med Chem, 2023).
Values after ≈ are worked out from the molar mass of the structure shown.

What was measured:
Plasmodium falciparum [1] = test: Antiplasmodial activity against CQ-resistant Plasmodium falciparum FCR-3/Gambia subline F-86 infected in erythrocytes assessed as parasite growth inhibition incubated for 24 hrs by [3H]-hypoxanthine incorporation assay; format: functional, organism-based; conditions: FCR-3/Gambia subline F-86, Erythrocyte
Plasmodium falciparum [2] = test: Antiplasmodial activity against CQ-sensitive Plasmodium falciparum 3D7 assessed as parasite growth inhibition; format: functional, organism-based
Plasmodium falciparum [3] = test: Antiplasmodial activity against Plasmodium falciparum infected in O+ RBCs assessed as parasite growth inhibition incubated for 36 to 40 hrs by JSB staining based analysis; format: functional, organism-based, RBC
Plasmodium falciparum [4] = test: Antiplasmodial activity against CQ-resistant Plasmodium falciparum 2/K-1 infected in human O+ red blood cells assessed as parasite growth inhibition incubated for 72 hrs by Malstat assay; format: functional, organism-based, Red blood cell; conditions: 2/K-1, Erythrocyte
Plasmodium falciparum [5] = test: Antimalarial activity against Plasmodium falciparum 3D7 assessed as parasite growth inhibition incubated for 42 hrs by [3H]-hypoxanthine incorporation assay; format: functional, organism-based
[6] = Cytotoxicity against human PC-3 cells incubated for 72 hrs by MTT assay; format: toxicity, cell-based
Plasmodium falciparum [7] = test: Antiplasmodial activity against CQ-sensitive Plasmodium falciparum F32 Tanzania assessed as parasite growth inhibition incubated for 48 hrs; format: functional, organism-based, RBC; conditions: Erythrocyte
Plasmodium falciparum [8] = test: Antimalarial activity against CQ-resistant Plasmodium falciparum RKL-9 field isolate at asexual stage assessed as parasite growth inhibition incubated for 22 to 36 hrs by SMI assay; format: functional, organism-based
Plasmodium falciparum [9] = test: Antiplasmodial activity against CQ-sensitive Plasmodium falciparum 3D7 at trophozoite stage infected in human O+ RBCs assessed as parasite growth inhibition by SYBR Green I staining based analysis; format: functional, organism-based, RBC; conditions: 3D7, Erythrocyte
Plasmodium falciparum [10] = test: Antiplasmodial activity against CQ-resistant Plasmodium falciparum RKL-9 at trophozoite stage infected in human O+ RBCs assessed as parasite growth inhibition by SYBR Green I staining based analysis; format: functional, organism-based, RBC; conditions: RKL-9, Erythrocyte
Plasmodium falciparum [11] = test: Antiplasmodial activity against CQ-resistant Plasmodium falciparum K1 assessed as parasite growth inhibition; format: functional, organism-based
[12] = Cytotoxicity against African green monkey Vero cells; format: toxicity, cell-based; conditions: chlorocebus sabaeus
Plasmodium falciparum [13] = test: Antiplasmodial activity against Plasmodium falciparum 3D7 assessed as parasite growth inhibition incubated for 24 hrs by [3H]-hypoxanthine incorporation assay; format: functional, organism-based
[14] = Cytotoxicity against human Huh-7 cells incubated for 48 hrs by MTT assay; format: toxicity, cell-based
Falcipain 2 = molecular target: T1, Falcipain 2 (Plasmodium falciparum, UniProt Q9N6S8); test: Inhibition of recombinant Plasmodium falciparum FP2
T1 sequence (Q9N6S8 whole entry): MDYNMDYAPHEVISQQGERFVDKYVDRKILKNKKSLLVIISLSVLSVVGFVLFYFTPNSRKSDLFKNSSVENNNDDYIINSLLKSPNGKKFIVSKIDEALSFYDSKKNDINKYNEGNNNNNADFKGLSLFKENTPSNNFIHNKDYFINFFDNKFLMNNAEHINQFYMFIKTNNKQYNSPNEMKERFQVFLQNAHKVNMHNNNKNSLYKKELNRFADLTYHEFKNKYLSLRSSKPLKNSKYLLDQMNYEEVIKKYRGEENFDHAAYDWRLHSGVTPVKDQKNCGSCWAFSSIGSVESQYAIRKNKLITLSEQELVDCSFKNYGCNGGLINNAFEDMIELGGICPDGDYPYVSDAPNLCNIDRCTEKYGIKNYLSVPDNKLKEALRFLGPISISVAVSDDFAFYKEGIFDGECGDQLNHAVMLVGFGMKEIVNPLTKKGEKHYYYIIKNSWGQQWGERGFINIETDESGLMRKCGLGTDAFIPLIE

Plasmodium falciparum [15] = test: Antiplasmodial activity against Plasmodium falciparum 3D7 assessed as parasite growth inhibition; format: functional, organism-based
[16] = Selectivity index, ratio of CC50 for human erythrocytes to IC50 for Plasmodium falciparum Dd2; format: toxicity; conditions: read-out: Ratio CC50/IC50
Plasmodium falciparum [17] = test: Antiplasmodial activity against CQ-sensitive Plasmodium falciparum 3D7 infected in red blood cells assessed as parasite growth inhibition incubated for 72 hrs by SYBR Green I staining based analysis; format: functional, organism-based, Red blood cell; conditions: 3D7, Erythrocyte
Plasmodium falciparum [18] = test: Antiplasmodial activity against CQ-resistant Plasmodium falciparum W2 infected in red blood cells assessed as parasite growth inhibition incubated for 72 hrs by SYBR Green I staining based analysis; format: functional, organism-based, Red blood cell; conditions: W2, Erythrocyte
Plasmepsin II = Plasmepsin II (Plasmodium falciparum, UniProt P46925); test: Inhibition of Plasmodium falciparum Plm-II using DABCYL-Glu-Arg-Nle-Phe-Leu-Ser-Phe-Pro-EDANS as substrate preincubated for 30 mins followed by substrate addition measured after 8 to 15 mins by FRET assay
Plasmodium falciparum [19] = test: Antiplasmodial activity against Plasmodium falciparum K1 infected in O+ RBCs assessed as parasite growth inhibition incubated for 36 to 40 hrs by Geimsa staining based analysis; format: functional, organism-based, RBC; conditions: K1, Erythrocyte
[20] = Plasmodium falciparum, Erythrocyte, read-out: IC50

Chain of Plasmepsin II (P46925 whole entry): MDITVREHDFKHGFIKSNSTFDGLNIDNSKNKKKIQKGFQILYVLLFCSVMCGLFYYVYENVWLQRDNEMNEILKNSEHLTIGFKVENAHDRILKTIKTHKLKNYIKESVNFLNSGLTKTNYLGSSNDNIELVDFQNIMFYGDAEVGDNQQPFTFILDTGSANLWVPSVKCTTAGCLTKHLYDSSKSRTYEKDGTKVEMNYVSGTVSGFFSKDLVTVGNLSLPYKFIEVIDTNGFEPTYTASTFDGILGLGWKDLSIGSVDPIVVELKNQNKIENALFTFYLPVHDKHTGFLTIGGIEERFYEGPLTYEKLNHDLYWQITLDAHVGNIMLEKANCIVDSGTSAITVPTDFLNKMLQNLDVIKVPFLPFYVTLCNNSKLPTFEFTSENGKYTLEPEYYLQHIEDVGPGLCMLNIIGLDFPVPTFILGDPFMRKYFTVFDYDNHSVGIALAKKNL

C[C@@H]1[C@@H](n2cc(-c3cccc(Cl)c3)nn2)O[C@@H]2O[C@]3(C)CC[C@H]4[C@H](C)CC[C@@H]1[C@@]24OO3
IC50 (Plasmodium falciparum [1]): 2.5 nM

C[C@H]1[C@H](n2nncc2-c2cccc(Cl)c2)O[C@@H]2O[C@]3(C)CC[C@H]4[C@H](C)CC[C@@H]1[C@@]24OO3
IC50 (Plasmodium falciparum [1]): 4.2 nM

O=C(Cn1cc(-c2ccccc2)nn1)c1ccccc1
IC50 (Plasmodium falciparum [2]): 1290 nM

O=C(Cn1cc(CSc2ccc(Br)cc2)nn1)OCc1ccc(Cl)cc1
IC50 (Plasmodium falciparum [3]; [20]): 203 nM

O=C(Cn1cc(CSc2ccc(Cl)cc2)nn1)OCc1ccc(Cl)cc1
IC50 (Plasmodium falciparum [3]; [20]): 208 nM

CCc1nnc2ccc(S(=O)(=O)N(Cc3cccc(F)c3)c3ccc(OC)cc3)cn12
IC50 (Plasmodium falciparum [4]): 4980 nM

COc1ccc2cc3[n+](cc2c1OCc1cn(-c2ccc(S(=O)(=O)N4CCOCC4)cc2)nn1)CCc1cc2c(cc1-3)OCO2.[Cl-]
IC50 (Plasmodium falciparum [5]): 0.1 µg/mL | CC50 at 72 h [6]: > 200 µg/mL

COc1ccc2cc3[n+](cc2c1OCc1cn(-c2ccc(S(=O)(=O)N4CCN(C)CC4)cc2)nn1)CCc1cc2c(cc1-3)OCO2.[Cl-]
IC50 (Plasmodium falciparum [5]): 0.1 µg/mL | CC50 at 72 h [6]: > 200 µg/mL

COc1ccc2cc3[n+](cc2c1OCc1cn(-c2ccc(S(=O)(=O)N4CCCCC4)cc2)nn1)CCc1cc2c(cc1-3)OCO2.[Cl-]
IC50 (Plasmodium falciparum [5]): 0.1 µg/mL | CC50 at 72 h [6]: > 200 µg/mL

O=C1C=C(OCc2cn(-c3ccccc3)nn2)C(=O)c2ccccc21
IC50 (Plasmodium falciparum [7]): 1200 nM

COc1ccc(-n2cc(COC3=CC(=O)c4ccccc4C3=O)nn2)cc1F
IC50 (Plasmodium falciparum [7]): 800 nM

O=C(Cn1cc(COc2ccc(Cl)cc2)nn1)NCCNc1ccnc2cc(Cl)ccc12
IC50 (Plasmodium falciparum [8]): < 100 nM

O=C(Cn1cc(COc2ccccc2)nn1)NCCCNc1ccnc2cc(Cl)ccc12
IC50 (Plasmodium falciparum [8]): 75 nM

COc1ccccc1C(=O)/C=C/c1cn(Cc2cn(-c3ccnc4cc(Cl)ccc34)nn2)c2ccccc12
IC50 (Plasmodium falciparum [9]): 2400 nM | IC50 (Plasmodium falciparum [10]): 3500 nM

Cc1ccccc1C(=O)/C=C/c1cn(Cc2cn(-c3ccnc4cc(Cl)ccc34)nn2)c2ccccc12
IC50 (Plasmodium falciparum [9]): 1800 nM | IC50 (Plasmodium falciparum [10]): 2700 nM

O=C(Cn1cc(CSc2ccc(Br)cc2)nn1)OCc1ccc([N+](=O)[O-])cc1
IC50 (Plasmodium falciparum [3]; [20]): 183 nM

Cc1ccccc1COc1ccc(-n2cc(COc3cc(=O)oc4ccccc34)nn2)cc1
IC50 (Plasmodium falciparum [3]; rbc): 0.53 microg/cm3

COc1cc(/C=C/C(=O)c2ccc(Cl)cc2)ccc1OCc1cn(-c2ccnc3cc(Cl)ccc23)nn1
IC50 (Plasmodium falciparum [11]): 3140 nM | CC50 [12]: 46200 nM

O=c1ccc2ccc(OCc3cn(-c4ccc(OCc5ccc(F)cc5)cc4)nn3)cc2o1
IC50 (Plasmodium falciparum [3]; rbc): 0.49 microg/cm3

Cc1ccc(OCc2cn(-c3ccc(S(N)(=O)=O)cc3)nn2)cc1
IC50 (Plasmodium falciparum [13]): 6.2 µg/mL (≈ 18 µM) | CC50 at 48 h [14]: 7.5 µg/mL (≈ 21.8 µM)

COc1ccc2cc3[n+](cc2c1OCc1cn(-c2ccc(S(=O)(=O)N4CCN(c5ccccn5)CC4)cc2)nn1)CCc1cc2c(cc1-3)OCO2.[Cl-]
IC50 (Plasmodium falciparum [5]): 0.1 µg/mL | CC50 at 72 h [6]: > 200 µg/mL

O=c1ccc2ccc(OCc3cn(-c4ccc(OCc5ccc(Br)cc5)cc4)nn3)cc2o1
IC50 (Plasmodium falciparum [3]; rbc): 0.54 microg/cm3

O=[N+]([O-])c1ccc(-n2cc(COc3cccc4nc(Cl)ccc34)nn2)cc1
IC50 (Falcipain 2): 16200 nM | IC50 (Plasmodium falciparum [15]): 49900 nM

O=[N+]([O-])c1ccc(Cn2cc(CO)nn2)cc1
selectivity ratio [16]: 161

Cc1ccc(COc2ccc(-n3cc(COc4ccc5ccc(=O)oc5c4)nn3)cc2)cc1
IC50 (Plasmodium falciparum [3]; rbc): 0.38 microg/cm3

OB1OCc2cc(OCc3cn(CCCNc4ccnc5cc(Cl)ccc45)nn3)ccc21
IC50 (Plasmodium falciparum [17]): 4130 nM | IC50 (Plasmodium falciparum [18]): 3910 nM

Cc1ccc(COC(=O)Cn2cc(CSc3ccc(C)cc3)nn2)cc1
IC50 (Plasmodium falciparum [3]; [20]): 204 nM

O=C(Cn1cc(CSc2ccc3ccccc3c2)nn1)OCc1ccc([N+](=O)[O-])cc1
IC50 (Plasmodium falciparum [3]; [20]): 207 nM

C[C@H]1[C@@H](n2cc(-c3cccc(Cl)c3)nn2)O[C@@H]2O[C@]3(C)CC[C@H]4[C@H](C)CC[C@@H]1[C@@]24OO3
IC50 (Plasmodium falciparum [1]): 3.7 nM

CCCCCc1ccc(-n2nnc(CCN(CC)CC)c2Cc2ccc(-c3ccc(OC)cc3)cc2)cc1
IC50 (Plasmepsin II): 600 nM

O=C(Cn1cc(CSc2ccc(Cl)cc2)nn1)OCc1ccccc1
IC50 (Plasmodium falciparum [3]; [20]): 209 nM

O=S(=O)(c1ccc(-n2cc(COc3ccc(I)cc3)nn2)cc1)N1CCN(c2ccccc2)CC1
IC50 (Plasmodium falciparum [13]): 12.9 µg/mL (≈ 21.4 µM)

O=C(Cn1cc(Oc2ccc(Cl)cc2)nn1)NCCNc1ccnc2cc(Cl)ccc12
IC50 (Plasmodium falciparum [8]): 8.5 nM

COc1ccc2cc3[n+](cc2c1OCc1cn(-c2ccc(S(=O)(=O)N4CCN(S(=O)(=O)c5ccc(-n6cc(COc7c(OC)ccc8cc9[n+](cc78)CCc7cc8c(cc7-9)OCO8)nn6)cc5)CC4)cc2)nn1)CCc1cc2c(cc1-3)OCO2.[Cl-].[Cl-]
IC50 (Plasmodium falciparum [5]): 0.1 µg/mL | CC50 at 72 h [6]: > 200 µg/mL

CCCCCc1ccc(-n2nnc(CCN3CCCC3)c2Cc2ccc(-c3ccc(OC)cc3)cc2)cc1
IC50 (Plasmepsin II): 600 nM

C[C@H](Cn1cc(C(C)(C)O)nn1)C1CCC2[C@@H](O)CCC[C@]12C (stereo partly specified)
IC50 (Plasmodium falciparum [2]): 20 nM

ClCCCCn1cc(-c2ccccc2)nn1
IC50 (Plasmodium falciparum [2]): 3290 nM

O=c1n(Cc2cccc(Cl)c2)nc2c(S(=O)(=O)N3CCCCC3)cccn12
IC50 (Plasmodium falciparum [4]): 2240 nM

Cc1ccc(COC(=O)Cn2cc(CSc3ccc(Br)cc3)nn2)cc1
IC50 (Plasmodium falciparum [3]; [20]): 178 nM

Cc1cc(C)nc(NS(=O)(=O)c2ccc(-n3cc(COc4ccc(Cl)cc4Cl)nn3)cc2)n1
IC50 (Plasmodium falciparum [13]): 16.7 µg/mL (≈ 33 µM)

CCCCCc1ccc(-n2nnc(CCN3CCN(C)CC3)c2Cc2ccc(-c3ccc(OC)cc3)cc2)cc1
IC50 (Plasmepsin II): 1800 nM

C=C[C@H]1CN2CC[C@H]1C[C@@H]2[C@@H](c1ccnc2ccc(OC)cc12)n1cc(CCCCCC)nn1
IC50 (Plasmodium falciparum [19]): 280 nM

C=C[C@H]1CN2CC[C@H]1C[C@@H]2[C@@H](c1ccnc2ccc(OC)cc12)n1cc(CCCCCCCCCCCCCC)nn1
IC50 (Plasmodium falciparum [19]): 280 nM

C=C[C@H]1CN2CC[C@H]1C[C@@H]2[C@@H](c1ccnc2ccc(OC)cc12)n1cc(C[C@H](N)C(=O)O)nn1
IC50 (Plasmodium falciparum [19]): 250 nM

C=C[C@H]1CN2CC[C@H]1C[C@@H]2[C@@H](c1ccnc2ccc(OC)cc12)n1cc(CN2CCCC2C(=O)OCC)nn1 (stereo partly specified)
IC50 (Plasmodium falciparum [19]): 330 nM
